Results on eight molecules are retold here after ChEMBL document CHEMBL1128066, “Synthesis and antiviral activity of dihydroxycyclohexyl pyrimidine and purine carbocyclic nucleosides” (Bioorg Med Chem Lett, 1995).

Common to all, as to assay type: functional, cell-based
The test system of assay [1] is PEU. The experiment in a line: Antiviral activity was evaluated by the plaque reduction method against Cytomegalovirus (CMV) in PEU cells. As to conditions: Homo sapiens.
Assay [2] relates to PEU. The experiment in a line: Compound was tested for its overt cytotoxicity in virus free PEU cell culture. As to conditions: Homo sapiens.
Assay [3] has as its system Vero. Briefly: Antiviral activity was evaluated by the plaque reduction method against Herpes virus 1 (HSV-1) in Vero cells. As to conditions: Chlorocebus sabaeus. In general terms: In a plaque reduction assay, fewer plaques than in the control indicate reduced infectivity or spread.
The subject of assay [4] is Vero. The experiment in a line: Antiviral activity was evaluated by the plaque reduction method against Herpes virus 2 (HSV-2) in Vero cells. Particulars: Chlorocebus sabaeus.

Where only a bound is given, the exact number is not on record here.

As usually defined, the EC50 is the concentration that produces a half-maximal response. Low values mean greater potency, high ones weaker potency. As a reminder, the IC50 is the concentration that gives 50% inhibition. Low readings indicate inhibition by little substance, high ones a need for much substance. Consider `O=c1ccn([C@@H]2CC[C@H](OCc3ccccc3)C[C@H]2O)c(=O)[nH]1`, for which the concentration giving a half-maximal response (EC50) in assay [1] amounted to 10 µM; in assay [3] it was 158 µM; in assay [4] it was 158 µM. Also, in assay [2], the IC50 was > 250 µM.

As for `O=c1ccn([C@@H]2C[C@@H](OCc3ccccc3)CC[C@H]2O)c(=O)[nH]1`, the EC50 in assay [1], in assay [3] and in assay [4] was 10 µM each time. Moreover, the IC50 in assay [2] is > 250 µM.

Take `Nc1nc(O)c2ncn(C3CCC(O)CC3O)c2n1` (configuration not stated): the EC50 in assay [1], in assay [3] and in assay [4] was 188 µM in each case. The IC50 in assay [2] is > 250 µM.

Consider `Nc1ncnc2c1ncn2C1CCC(O)CC1O` (configuration not stated), for which the concentration for a half-maximal effect (EC50) in assay [1] amounted to 200 µM; in assay [3], 28.5 µM; in assay [4], 30 µM. Besides, in assay [2], the IC50 is > 250 µM.

In the case of `Nc1ncnc2c1ncn2C1CCC(OCc2ccccc2)CC1O` (configuration not stated), the EC50 stood at 147 µM in assay [1], 16.8 µM in assay [3] and 16.2 µM in assay [4]. Besides, the IC50 in assay [2] was > 250 µM.

As for `Nc1nc(O)c2ncn(C3CCC(OCc4ccccc4)CC3O)c2n1` (configuration not stated), the EC50 was determined as 140 µM in assay [1], 21.2 µM in assay [3] and 22.1 µM in assay [4]. The IC50 in assay [2] is > 250 µM.

On to `O=c1ccn(C2CC(O)CCC2O)c(=O)[nH]1` (configuration not stated), for which the EC50 in assay [1] is 0.97 µM; in assay [3] it was 10 µM; in assay [4], 0.97 µM. Further, the half-maximal inhibitory concentration (IC50) in assay [2] was > 250 µM.

As for `O=c1ccn(C2CCC(O)CC2O)c(=O)[nH]1` (configuration not stated), the EC50 in assay [1] stood at 10 µM; in assay [3], 0.97 µM; in assay [4], 0.97 µM. Also, in assay [2], the IC50 was > 250 µM.
